In US20260294964A1, “PHARMACEUTICALS CONTAINING CHELATORS WITH STRONG ZN IONS-HOLDING FEATURE FOR THE TREATMENT OF SYMPTOMS AND DISEASES CAUSED BY MICROORGANISMS/DISEASES CAUSED BY TOXINS OR NEUROTOXINS/CANCER/SEVERAL SYNDROMES” (priority 2023, published 2026):
Entries after “also recorded” stand apart in the source; their conditions may differ. Read-outs that look alike come from different tables or passages of the source.

Experiments:
[1] = system: sweet taste on the tongue; assay: Loss and recovery of sweet taste after Zn gluconate; type: in vivo, human; settings: for recovery of sweet taste: 5% arginine glutamate / 0.5% triethylenetetramine glutamate, 10 seconds
[2] = Metallic Cu suspension test with 1% Na ascorbate (Cu ion complex formation); type: physicochemical; settings: 0.1% CuCl2, alone or with several percent of chelator; excess 1% Na ascorbate
Boraras Micros fish [3] = settings: for toxicity / safety to host cells: in words, from fish experiments; for time to death of fish: 300 ppm EDTA disodium, 800 ppm EDTA Na; for death of fish: 1000 ppm Na2 EDTA / 0.5 ppm CuCl2 / [0.3 ppm CuCl2+20 ppm ZnCl2]
mice = type: in vivo, mouse; settings: fed rat poison pills, normal water (control)
[4] = Metallic Cu suspension test with 1% Na ascorbate (Cu ion complex formation); type: physicochemical; settings: with 0.1% CuCl2; excess 1% Na ascorbate
Description: In an environment containing water in the body of organisms/host bodies (host is animal/human) such as in blood/tissue fluid/alveolar fluid/intracellular fluid . . . ) in conditions where the body is depleted of chelators with [Zn ions/other transition metal ions]-holding (such as the amount of chelators with [Zn ions/other transition metal ions]-holding remains is not significant in the patient's body), Cu ions will attach to [Fe ions in metalloproteins of [host cells/red blood cells/alveolar cells], causing these cells to lose the ability to exchange O2, causing symptoms of acute respiratory failure (not due to lung infection), and this symptom is very dangerous because it can quickly lead to death. Among the bond forces between Cu ions and other metal ions, the bond force of the Cu ion-Fe ion complex is the strongest, can recognize the existence of Cu ion-ion Fe ion complex/Cu ion-Zn ion complex/Cu ion-Mg ion complex/Cu ion-Ca ion complex, and can recognize Cu ion-other metal ion bonds, in which the Cu ion-Fe ion bond is the bond type with the highest magnitude through experiments conducted in water environment (water environment without chelators with [Zn ions/other transition metal ions]-holding) is the environment that simulates the blood environment/alveolar fluid environment of a host with the depletion of these chelators), these experiments were performed by adding an excess amount of 1% Na ascorbate solution to the test tube containing the solution with [0.1 % CuCl2+greater than 0.2% FeCl3]/the test tube containing the solution containing [0.1 % CuCl2+greater than 0.6% ZnCl2]/the test tube containing the solution containing [0.1 % CuCl2+greater than 0.63% MgCl2]/the test tube containing the solution conatining [0 .

[5] = system: microorganisms that decompose organic matter (bacteria/fungi); assay: Culture of microorganisms that decompose organic matter; type: cell-based; settings: for concentration in culture medium at which microorganisms multiply strongly: microorganisms that decompose organic matter (bacteria/fungi)
Boraras Micros fish [6] = assay: Protection of Boraras Micros fish from CuCl2 by chelators; type: in vivo; settings: 0.4 ppm CuCl2 + a few ppm to more than 10 ppm of chelator
[7] = type: physicochemical, animal/human blood; settings: for volume that completely dissolves Zn-blood complex suspension: suspension from 1.4 ml 0.1% ZnCl2 in 100 ml 0.9% NaCl with 1% blood; for amount needed to completely dissolve Zn-blood complex suspension, compared with lysine phosphate/lysine chloride/arginine phosphate/arginine chloride: suspension with 2 ppm ZnCl2
[8] = system: symptoms such as sore throat/cough/headache; assay: Symptoms generated by ZnCl2 in the throat and their relief; type: in vivo, human; settings: for disappearance of ZnCl2-induced symptoms: few ml of 10% solution, oral
[9] = Voltage of metallic Zn-metallic Cu electrode pair in test tube; type: physicochemical; settings: 0.9% NaCl+0.2 ppm CuCl2+0.4 ppm ZnCl2+0.6 FeCl3
[10] = system: pathogenic microorganisms; assay: Inhibition/killing of pathogenic microorganisms in water with Boraras Micros fish infected from dead fish; type: in vivo
avian influenza = system: avian influenza; set-up: species or system chicken; settings: in vivo
[11] = 10 ppm Ampicillin / 20 ppm Bactrim / 100 ppm triethylenetetramine diethylenetriaminepentaacetate / 300 Mg EDTA / 600 ppm Ca EDTA / combinations as in label
[12] = 20 ppm Ampicillin / 40 ppm Bactrim

O=C([O-])[C@H](O)[C@@H](O)[C@H](O)[C@H](O)CO.O=C([O-])[C@H](O)[C@@H](O)[C@H](O)[C@H](O)CO.[Zn+2] [Zn gluconate]
sweet taste sensation after Zn ([1]; chewing and sucking 15 mg tablet, 120 seconds): completely lost

N=C(N)NCCC[C@H](N)C(=O)O [arginine, reference compound]
appearance of metallic Cu suspension [2]: metallic Cu suspension will not appear

CN(C)C1CSSC1 [Nereistoxin]
time to death of fish, toxin alone (Boraras Micros fish [3]; in vivo): 30 min

O=c1oc2ccccc2c(O)c1C1CC(c2ccc(OCc3ccc(C(F)(F)F)cc3)cc2)Cc2ccccc21 (stereo not shown) [flocoumafen, reference compound]
time to death of all mice (mice): about 2 days | time to death of fish, toxin alone (Boraras Micros fish [3]; 1.25 ppm flocoumafen / 0.3 ppm Bromadiolone / 0.2 ppm Methylamine Avermectin): 2160 min

[Cl-].[Cl-].[Mg+2] [MgCl2]
concentration of second metal salt at which metallic Cu suspension will not appear [4]: greater than 0.63%

O=C([O-])CCC(=O)[O-].[Na+].[Na+] [succinate Na, Na succinate]
concentration in culture medium at which microorganisms multiply strongly [5]: 80 ppm

O=C([O-])CN(CCN(CC(=O)O)CC(=O)O)CC(=O)[O-].[K+].[K+] [EDTA dipotassium]
toxicity / safety to host cells (Boraras Micros fish [3]): toxic to host cells

Diethylenetriaminepentaacetic acid calcium [Ca DTPA]
survival of fish in CuCl2 with chelator (Boraras Micros fish [6]): will not die after several weeks | toxicity / safety to host cells (Boraras Micros fish [3]): highly safe

arginine ascorbate
volume that completely dissolves Zn-blood complex suspension ([7]; concentration of solution not given): 0.7 mL

pentaethylenehexamine diethylenetriaminepentaacetate
amount needed to completely dissolve Zn-blood complex suspension, compared with lysine phosphate/lysine chloride/arginine phosphate/arginine chloride [7]: tens to hundreds of times lower

NCCCC[C@H](N)C(=O)O.O=P(O)(O)O [lysine phosphate, reference compound]
survival of fish in CuCl2 with chelator (Boraras Micros fish [6]): will not die after several weeks

Na tannate Na
concentration in culture medium at which microorganisms multiply strongly [5]: 30 ppm

triethylenetetramine glutamate
recovery of sweet taste [1]: fully recovered | disappearance of ZnCl2-induced symptoms [8]: gradually disappear after a few hours | appearance of metallic Cu suspension [2]: metallic Cu suspension will not appear

N=C(N)NCCC[C@H](N)C(=O)O.O=P(O)(O)O [arginine phosphate]
survival of fish in CuCl2 with chelator (Boraras Micros fish [6]): will not die after several weeks | volume that completely dissolves Zn-blood complex suspension ([7]; 10% solution): 2 mL | units of [Zn ions/other transition metal ions] held by one unit of chelator ([7]; synthetic: upper end printed 'more than 200 units'): one unit (or few units) | amount used to sharply reduce the voltage, compared with EDTA Mg/triethylenetetramine glutamate/triethylenetetramine diethylenetriaminepentaacetate [9]: dozens of times greater

O=C([O-])CN(CCN(CC(=O)[O-])CC(=O)O)CC(=O)O.[Na+].[Na+] [EDTA disodium]
time to death of fish (Boraras Micros fish [3]): less than 24 hours | death of fish (Boraras Micros fish [3]): died within a few hours | death of fish (Boraras Micros fish [3]; listed as 2 Na EDTA): died in a few hours | toxicity / safety to host cells (Boraras Micros fish [3]): quite toxic to host cells | toxicity / safety to host cells (Boraras Micros fish [3]; listed as disodium EDTA): highly toxic to healthy cells

arginine glutamate
recovery of sweet taste [1]: fully recovered | volume that completely dissolves Zn-blood complex suspension ([7]; 10% solution): 1.0 mL | amount used to sharply reduce the voltage, compared with EDTA Mg/triethylenetetramine glutamate/triethylenetetramine diethylenetriaminepentaacetate [9]: dozens of times greater

NCCNCCNCCN [triethylenetetramine, Triethylenetetramine, reference compound]
appearance of metallic Cu suspension [2]: metallic Cu suspension will not appear

EDTA Na
time to death of fish (Boraras Micros fish [3]): ≤ 24 h

[Cl][Fe]([Cl])[Cl] [FeCl3]
volume that completely dissolves Zn-blood complex suspension ([7]; 0.1% solution): 6 mL | concentration of second metal salt at which metallic Cu suspension will not appear [4]: greater than 0.2%

triethylenetetramine ascorbate
disappearance of ZnCl2-induced symptoms [8]: gradually disappear after a few hours

CC1(C)S[C@@H]2[C@H](NC(=O)[C@H](N)c3ccccc3)C(=O)N2[C@H]1C(=O)O [Ampicillin, reference compound]
inhibition of proliferation of microorganisms ([5]; 20 ppm Bactrim / 10 ppm Ampicillin, first 36 hours): slightly inhibited | appearance of water after 6 days [10, 11]: cloudy | fish outcome after 6 days [10, 11]: died and all of fishes died | appearance of water after 6 days [10, 12]: cloudy | fish outcome after 6 days [10, 12]: died and all of fishes died

tetraethylenepentamine diethylenetriaminepentaacetate
amount needed to completely dissolve Zn-blood complex suspension, compared with lysine phosphate/lysine chloride/arginine phosphate/arginine chloride [7]: tens to hundreds of times lower

[Cl-].[Cl-].[Zn+2] [ZnCl2]
ZnCl2 concentration above which Zn-blood suspension begins to appear ([7]; 0.01% blood): above 1.5 ppm | ZnCl2 concentration at which suspension appears abundantly ([7]; 0.01% blood): 2 ppm | volume of 0.1% ZnCl2 solution at which Zn-blood complex suspension begins to appear ([7]; 100 ml of 0.9% NaCl with 1% blood): 1.4 mL | appearance of symptoms (itchy throat/sore throat/cough/runny nose/body aches/slight fever/headache) ([8]; 2 ml of 0.4% ZnCl2 solution, 120 seconds): appear after a few minutes to a few hours | concentration in culture medium at which microorganisms multiply strongly [5]: 12 ppm

O=C(O)CN(CCN(CC(=O)O)CC(=O)O)CC(=O)O.[Mg] [Mg EDTA, Ethylenediaminetetraacetic acid magnesium]
survival of fish in CuCl2 with chelator (Boraras Micros fish [6]): will not die after several weeks | volume that completely dissolves Zn-blood complex suspension ([7]; 0.1% solution): 2 mL | amount needed to completely dissolve Zn-blood complex suspension, compared with lysine phosphate/lysine chloride/arginine phosphate/arginine chloride [7]: tens to hundreds of times lower | appearance of metallic Cu suspension [2]: metallic Cu suspension will not appear | time after which fish did not die (Boraras Micros fish [3]; 800 ppm EDTA Cu / 3000 ppm EDTA Mg / 12000 ppm EDTA Ca): ≥ 10 days | survival of fish (Boraras Micros fish [3]; 2000 ppm triethylenetetramine diethylnenepentaacetate / 3000 ppm Mg EDTA / 2000 ppm Cu EDTA / 12000 ppm Ca EDTA, mixtures at concentrations in label): lived for many days | state of chickens after 12 hours (avian influenza): stopped the lethargic state and they returned to eating normally | appearance of water after 6 days [10, 11]: clear; also recorded: transparent | fish outcome after 6 days [10, 11]: lived; also recorded: did not die

triethylenetetramine gluconate
amount needed to completely dissolve Zn-blood complex suspension, compared with lysine phosphate/lysine chloride/arginine phosphate/arginine chloride [7]: tens to hundreds of times lower

O=C([O-])c1cc(O)c(O)c(O)c1.[Na+] [Na gallate]
concentration in culture medium at which microorganisms multiply strongly [5]: 5 ppm

O=C([O-])CC(O)C(=O)[O-].[Na+].[Na+] (stereo not shown) [malate Na, Na malate]
concentration in culture medium at which microorganisms multiply strongly [5]: 80 ppm

[Cl][Cu][Cl] [CuCl2]
appearance of metallic Cu suspension [2]: metallic Cu suspension will appear | death of fish in CuCl2 (Boraras Micros fish [3]; 0.4 ppm CuCl2): dying after a few hours

Diethylenetriaminepentaacetic acid magnesium [Mg DTPA]
survival of fish in CuCl2 with chelator (Boraras Micros fish [6]): will not die after several weeks | appearance of metallic Cu suspension [2]: metallic Cu suspension will not appear

NCCCC[C@H](N)C(=O)O [lysine, reference compound]
appearance of metallic Cu suspension [2]: metallic Cu suspension will not appear

[Ca+2].[Cl-].[Cl-] [CaCl2]
concentration of second metal salt at which metallic Cu suspension will not appear [4]: greater than 0.65%

O=C([O-])CC(O)(CC(=O)[O-])C(=O)[O-].[Na+].[Na+].[Na+] [citrate Na, Na citrate]
concentration in culture medium at which microorganisms multiply strongly [5]: 80 ppm
